{"source": "paper PMC12032770", "about": "(Journal of Experimental & Clinical Cancer Research : CR, 2025)", "origin": "cited, not measured here", "system": "αvβ3 and αvβ5 integrin receptors", "settings": "at low doses", "source_text": "The αvβ3 and αvβ5 integrin receptors are strongly overexpressed on proangiogenic endothelial cells, including those that form tumor-associated blood vessels in GBM, and inhibitors targeting these integrins, such as the cyclic peptide cilengitide (CIL), act as anti-angiogenic agents.", "data": [{"substance": "cilengitide", "values": [{"measurement": "effect on tumor vasculature", "result": "vascular normalization"}]}]}
